In US12581252B2, “Substituted pyrrolo[3,4-b]pyridines as PI3K-α inhibitors” (Relay Therapeutics, Inc., priority 2020, dated 2026):

Target: H1047R PIK3CA enzyme (Homo sapiens, UniProt P42336, H1047R)
Test: ADP-Glo Biochemical PIK3CA Kinase Assay
Protocol: Compounds to be assayed were plated in 16 doses of 1:2 serial dilutions (20 nL volume each well) on a 1536-well plate, and the plate warmed to room temperature. […] To the well was added 1 μL of 200 μM ATP and 20 μM of diC8-PIP2 in Substrate Assay Buffer (50 mM HEPES pH7.4, 50 mM NaCl, 5 mM DTT and 0.03% CHAPS) to start the reaction, and the plate was shaken for 10 seconds, then spun briefly at 1500 rpm, and then incubated for 60 minutes at room temperature. The reaction was stopped by adding 2 μL of ADP-Glo reagent (Promega), and spinning briefly at 1500 rpm, and then incubating for 40 minutes. ADP-Glo Detection reagent (Promega) was added and the plate spun briefly at 1500 rpm, then incubated for 30 minutes.

Chain of H1047R PIK3CA enzyme (P42336 whole entry H1047R): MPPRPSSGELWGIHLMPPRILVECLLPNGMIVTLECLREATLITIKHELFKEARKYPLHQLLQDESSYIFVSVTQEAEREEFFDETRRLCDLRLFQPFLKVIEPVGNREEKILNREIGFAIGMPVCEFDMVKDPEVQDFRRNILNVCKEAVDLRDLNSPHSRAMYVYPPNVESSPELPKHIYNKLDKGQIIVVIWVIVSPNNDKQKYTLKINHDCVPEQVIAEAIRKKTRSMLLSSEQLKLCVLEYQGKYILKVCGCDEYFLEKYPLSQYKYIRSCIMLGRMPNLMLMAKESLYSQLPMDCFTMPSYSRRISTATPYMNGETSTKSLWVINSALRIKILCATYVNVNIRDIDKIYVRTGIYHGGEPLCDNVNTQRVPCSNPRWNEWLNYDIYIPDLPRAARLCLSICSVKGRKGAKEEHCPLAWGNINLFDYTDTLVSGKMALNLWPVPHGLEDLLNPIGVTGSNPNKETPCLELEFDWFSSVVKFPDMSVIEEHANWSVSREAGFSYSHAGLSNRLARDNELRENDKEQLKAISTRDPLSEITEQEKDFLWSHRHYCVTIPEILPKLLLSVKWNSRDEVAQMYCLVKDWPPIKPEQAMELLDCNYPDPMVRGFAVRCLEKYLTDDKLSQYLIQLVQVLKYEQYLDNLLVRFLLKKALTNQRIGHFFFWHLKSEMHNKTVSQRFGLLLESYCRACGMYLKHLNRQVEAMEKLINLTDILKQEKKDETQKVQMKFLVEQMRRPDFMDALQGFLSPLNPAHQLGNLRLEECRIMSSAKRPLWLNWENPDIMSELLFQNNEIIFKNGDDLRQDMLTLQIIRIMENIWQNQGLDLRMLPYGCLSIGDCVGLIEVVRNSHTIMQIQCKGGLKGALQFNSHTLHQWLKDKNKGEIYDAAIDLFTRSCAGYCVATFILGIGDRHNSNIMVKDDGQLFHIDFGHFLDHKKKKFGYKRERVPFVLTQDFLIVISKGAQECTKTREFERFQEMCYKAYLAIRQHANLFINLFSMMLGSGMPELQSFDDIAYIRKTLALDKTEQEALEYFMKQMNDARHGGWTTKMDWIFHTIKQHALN
Chain of H1047R PIK3CA enzyme (P27986 whole entry partner): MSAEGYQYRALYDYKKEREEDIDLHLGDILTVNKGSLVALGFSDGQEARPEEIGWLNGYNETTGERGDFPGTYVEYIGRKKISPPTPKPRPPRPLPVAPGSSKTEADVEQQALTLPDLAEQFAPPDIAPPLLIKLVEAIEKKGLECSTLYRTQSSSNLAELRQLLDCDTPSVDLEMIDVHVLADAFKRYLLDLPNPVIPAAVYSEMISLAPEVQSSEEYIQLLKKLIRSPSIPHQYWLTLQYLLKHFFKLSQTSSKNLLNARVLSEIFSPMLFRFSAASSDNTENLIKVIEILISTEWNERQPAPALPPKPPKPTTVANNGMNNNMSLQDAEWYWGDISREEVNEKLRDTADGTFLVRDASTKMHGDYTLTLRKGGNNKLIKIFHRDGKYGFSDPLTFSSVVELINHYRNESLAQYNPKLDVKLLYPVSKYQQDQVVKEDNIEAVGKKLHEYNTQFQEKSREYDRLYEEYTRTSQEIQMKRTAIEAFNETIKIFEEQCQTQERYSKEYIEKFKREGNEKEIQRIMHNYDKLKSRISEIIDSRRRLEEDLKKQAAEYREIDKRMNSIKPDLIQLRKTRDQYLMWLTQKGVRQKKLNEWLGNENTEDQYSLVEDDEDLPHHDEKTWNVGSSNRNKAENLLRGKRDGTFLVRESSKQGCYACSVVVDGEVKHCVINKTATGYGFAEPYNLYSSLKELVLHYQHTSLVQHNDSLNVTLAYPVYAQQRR

Row | Structure (SMILES) | IC50 [nM]
1 | O=C(Nc1cc(C2CNCCS2(=O)=O)cc2c1C(c1cc(F)ccc1Cl)NC2=O)c1cc(F)cc(C(F)(F)F)c1 (racemic) [Compound I-1255] | ≤ 100
2 | O=C(Nc1cc(O[C@H]2CC[C@@H]2O)cc2c1C(c1cc(F)ccc1Cl)NC2=O)c1cc(F)cc(C(F)(F)F)c1 (mixture of isomers) [Compound I-1289] | 100 to 500
3 | N#C[C@H]1C[C@@H](Oc2cc(NC(=O)c3cc(F)cc(C(F)(F)F)c3)c3c(c2)C(=O)NC3c2cc(F)ccc2Cl)C1 (mixture of isomers) [Compound I-1295] | ≤ 100
4 | CC(C)(O)C(O)c1cc(NC(=O)c2cc(F)cc(C(F)(F)F)c2)c2c(c1)C(=O)NC2c1cc(F)ccc1Cl (racemic) [Compound I-1307] | 100 to 500
5 | O=C(Nc1cc(OC2CN(C(=O)C(F)(F)F)C2)cc2c1C(c1cc(F)ccc1Cl)NC2=O)c1cc(F)cc(C(F)(F)F)c1 (racemic) [Compound I-1320] | 100 to 500
6 | O=C(Nc1cc(C[n+]2ccccc2)cc2c1[C@H](c1cc(F)ccc1Cl)NC2=O)c1cc(F)cc(C(F)(F)F)c1 (racemic) [Compound I-1321] | ≤ 100
7 | CC(=O)NCCOc1cc(NC(=O)c2cc(F)cc(C(F)(F)F)c2)c2c(c1)C(=O)NC2c1cc(F)ccc1Cl (racemic) [Compound I-1322] | 100 to 500
8 | CN1C(=O)CCC1COc1cc(NC(=O)c2cc(F)cc(C(F)(F)F)c2)c2c(c1)C(=O)NC2c1cc(F)ccc1Cl (racemic) [Compound I-1347] | ≤ 100
9 | O=C(Nc1cc(OCC2CCO2)cc2c1C(c1cc(F)ccc1Cl)NC2=O)c1cc(F)cc(C(F)(F)F)c1 (racemic) [Compound I-1366] | ≤ 100
10 | O=C(Nc1cc(OC[C@H]2CCCN2)cc2c1C(c1cc(F)ccc1Cl)NC2=O)c1cc(F)cc(C(F)(F)F)c1 (mixture of isomers) [Compound I-1457] | 100 to 500
11 | CC(c1cc(NC(=O)c2cc(F)cc(C(F)(F)F)c2)c2c(c1)C(=O)NC2c1cc(F)ccc1Cl)[S+](C)[O-] (racemic) [Compound I-1472] | 100 to 500
12 | O=C(Nc1cc(NC(=O)c2cc(F)cc(C(F)(F)F)c2)c2c(c1)C(=O)N[C@@H]2c1cc(F)ccc1Cl)c1cccnc1 (racemic) [Compound I-1478] | 100 to 500
13 | CSC(C)c1cc(NC(=O)c2cc(F)cc(C(F)(F)F)c2)c2c(c1)C(=O)NC2c1cc(F)ccc1Cl (racemic) [Compound I-1490] | ≤ 100
14 | CS(=O)(=O)N1CCC[C@H](Oc2cc(NC(=O)c3cc(F)cc(C(F)(F)F)c3)c3c(c2)C(=O)NC3c2cc(F)ccc2Cl)C1 (mixture of isomers) [Compound I-1526] | 100 to 500
15 | O=C(Nc1cc(O[C@H]2CCCNC2)cc2c1C(c1cc(F)ccc1Cl)NC2=O)c1cc(F)cc(C(F)(F)F)c1 (mixture of isomers) [Compound I-1527] | 100 to 500
16 | CC(C)(C#N)n1cc(-c2cc(NC(=O)c3cc(F)cc(C(F)(F)F)c3)c3c(c2)C(=O)N[C@H]3c2cc(F)ccc2Cl)cn1 (racemic) [Compound I-1661] | ≤ 100
17 | CN1CC(c2cc(NC(=O)c3cc(F)cc(C(F)(F)F)c3)c3c(c2)C(=O)NC3c2cc(F)ccc2Cl)CC1=O (racemic) [Compound I-1687] | ≤ 100
18 | CN1CCCC[C@@H]1[C@@H]1NC(=O)c2cccc(NC(=O)c3cc(F)cc(C(F)(F)F)c3)c21 (racemic) [Compound I-1713] | 10000 to 100000
19 | CN1CCCC[C@H]1[C@@H]1NC(=O)c2cccc(NC(=O)c3cc(F)cc(C(F)(F)F)c3)c21 (racemic) [Compound I-1733] | 10000 to 100000
20 | CN1CCCC(C2NC(=O)c3cccc(NC(=O)c4cc(F)cc(C(F)(F)F)c4)c32)C1 (racemic) [Compound I-1769] | 10000 to 100000
21 | O=C(Nc1cccc2c1C(C1CCNCC1)NC2=O)c1cc(F)cc(C(F)(F)F)c1 (racemic) [Compound I-1770] | 1000 to 10000
22 | CC(=O)N1CCCC(C2NC(=O)c3cccc(NC(=O)c4cc(F)cc(C(F)(F)F)c4)c32)C1 (racemic) [Compound I-1771] | 10000 to 100000
23 | O=C1N[C@@H](c2cc(F)ccc2Cl)c2c(NC(=O)[C@H]3CCCCN3)cc(-c3ccc4ncnn4c3)cc21 (racemic) [Compound I-1779] | 10000 to 100000
